# Patent publication US20250241925A1, “METHODS OF P21 SUPPRESSION FOR BONE REGENERATION AND HEALING” (UWM Research Foundation, Inc., priority 2022, published 2025)
# Legend:
# MSCs [1] = assay: Cytotoxicity (MTT assay) of UC2288 in purified MSCs; format: cell-based, mouse (C57BL/6)
# Procedure: All procedures with animals were approved by the IACUC at the University of Wisconsin-Milwaukee. The mice used for this study were C57BL/6 (Charles River, MA). Fifteen 8-week-old male mice were euthanized by CO2 inhalation. After checking for a heartbeat, a cervical dislocation was performed followed by checking for any signs of breathing again for precautionary measures. After confirming that there were no signs of breathing, the tibia and the femur were extracted and placed in phosphate buffered saline (PBS) (Corning Inc., NY). A bone marrow flush with a 23-gauge, 0.5-inch needle (Becton Dickinson, NJ) was performed in a biosafety hood and the pelleted bone marrow cell suspension was plated in a 60×15 mm Primaria cell culture dish (Corning Inc., NY) in MesenCult Basal Medium (Mouse) that contained 50 mL MesenCult 10× Supplement (Mouse) and 0.5 mL MesenPure 1000× (STEMCELL Technologies, Vancouver, Canada). The plates were incubated at 37° C. in a 5% CO2 humidified atmosphere. After 24 hours, half the medium volume was removed, and fresh medium was added. The media in the cultures were renewed every other day. As the cells reached confluency, they were detached by treatment with 0.5% Trypsin-EDTA (Thermo Fisher Scientific, MA) and replated into a 100×20 mm Primaria cell culture dish (Corning Inc.) and eventually into a T-25-cm^2 Primaria flask (Corning Inc, NY). […]
# MSCs [2] = assay: Osteogenic differentiation of MSCs, Alizarin Red S staining of calcium deposits; format: cell-based, mouse (C57BL/6)
# Procedure: In order to test whether UC2288 can improve osteogenic capacity of MSCs, the purified MSCs were differentiated into osteoblasts after interaction with UC2288. For osteogenic differentiation experiment, 84,000 cells were added into wells of a 24-well plate (Corning Inc., NY). Each concentration of UC2288, i.e., 2.5 μM, 5 μM, and 10 μM were tested in triplicates along with their controls which had no drugs but simply DMEM media and incubated for a period of 24- and 48-hours. After the designated time periods, the drug solutions were aspirated out of each well. To test for osteogenesis at different concentrations, relevant media were added to cells and renewed every other day for up to 21 days.
# The osteogenic media consisted of 1 nM of dexamethasone, 50 μg/mL of L-Ascorbic acid, and 10 mM of β-glycerophosphate (Sigma-Aldrich, MO) in 50 mL DMEM.
# After 21 days of culture, cells were stained following the appropriate staining protocol. […]
# This experiment tested the ability of cells that interacted with the UC2288 drug to generate bone-forming osteoblast cells. […] After staining each well by following an osteogenic staining protocol, the area of the stains was analyzed using ImageJ and the data were graphed in GraphPad Prism. […]
# fractured tibiae = assay: MicroCT imaging of fracture healing in mice after post-fracture UC2288 injection (Example 4); format: in vivo; details: five 0.1 mL 10 μM injections at days 3, 5, 7, 10, 14; 21 days post-injury
# Procedure: Male wildtype mice (n=10) aged between 8-10 weeks were selected for this study. Future experiments will also include aged mice (e.g., ˜18 months of age). […] The mice had their tibiae fractured at the beginning of the study. Five mice were considered controls and received five injections of saline solution at days 3, 5, 7, 10, and 14 post-injury. The other five mice were injected five times with 0.1 mL 10 μM of UC2288 solution at days 3, 5, 7, 10, and 14 post-injury. At 21 days post-injury, mice were sacrificed, and their tibiae were excised. These bones were imaged using a microCT system that can differentiate between bone and soft tissue.
# Sp7 (Osterix) = assay: Gene expression analysis (qPCR, ΔΔCt) in HuMSCs: Sp7; format: cell-based, human; details: 7 days
# Procedure: (§1) Human umbilical cord derived mesenchymal stem cells (HuMSCs) were plated in a 24 well plate at a density of 30,000 cells per well. Samples were divided as controls—no drug, no differentiation media; osteogenic control—no drug, DMEM media supplemented with factors to induce osteogenesis including dexamethasone, L-ascorbic acid, and beta-glycerol phosphate; 2.5, 5, and 10 μM wells consisted of DMEM media supplemented respective concentrations of UC2288. Media was renewed in all wells every other day. After 7 days, all samples were processed to extract total RNA. Next, cDNA was produced and qPCR was performed for gene expression analyses. Three genes of interest were analyzed-RunX2, Sp7 (Osterix), and CDKN1A (p21). RunX2 and Sp7 are genes responsible for osteoblast differentiation and take part in osteogenesis. To analyze the data, the ΔΔCt method was employed against an 18s endogenous control and DMEM media without differentiation factors or drugs as reference controls. The ΔΔCt can be described as:
# (§2) Relative mRNA expression of sample=2^−ΔΔCt of sample,
# (§3) where ΔΔCt of sample=(Ct of sample−Ct of 18s of sample)−(Ct of reference control−Ct of 18s of reference control).
# RunX2 = assay: Gene expression analysis (qPCR, ΔΔCt) in HuMSCs: RunX2; format: cell-based, human; details: 7 days
# Procedure: as §1, §2, §3
# CDKN1A (p21) = assay: Gene expression analysis (qPCR, ΔΔCt) in HuMSCs: p21; format: cell-based, human; details: 7 days
# Procedure: as §1, §2, §3
# [3] = system: transverse tibial fracture; assay: Microtomography imaging of transverse tibial fracture callus (Example 6); format: in vivo, C57BI/6 wildtype mice; details: 10 μM, 0.1 mL at days 3, 5, 7, 10, 14; 4 weeks post-fracture
# Procedure: All protocols were approved by IACUC at UWM. C57BI/6 wildtype mice at 8 weeks of age were administered a transverse tibial fracture. The mice were injected with 10 μM of UC2288 solution at a volume of 0.1 mL at days 3, 5, 7, 10, and 14. The mice were sacrificed 4 weeks post-fracture and their tibiae were excised. The bone samples were placed in 10% formalin for two days followed by placement in 70% ethanol until they were ready for microCT imaging. Each sample was placed on a holder and few drops of phosphate buffered saline were placed along with the sample. The sample was scanned using a microCt (Zeiss Xradia Versa X-ray microscope) scanner at a 15 μm thickness per slice. The data was contoured using MIMICS (Materialise NV) followed by data analysis via Python. […] See FIG. 7A-B. The black and white images show where bone was automatically thresholded via ImageJ.
smiles,measurement,setting,value
"O=C(Nc1ccc(Cl)c(C(F)(F)F)c1)N[C@H]1CC[C@H](Oc2ccc(C(F)(F)F)cn2)CC1 [UC2288, 1-(4-chloro-3-(trifluoromethyl)phenyl)-3-((1r,4r)-4-((5-(trifluoromethyl)pyridin-2-yl)oxy)cyclohexyl)urea]","proliferation of the MSCs (MTT, absorbance 540 nm) versus positive control DMEM media","MSCs [1]; 2.5, 5 and 10 μM UC2288, 24 hours",No significant difference
same,"proliferation of the MSCs (MTT, absorbance 540 nm) versus positive control DMEM media","MSCs [1]; 2.5, 5 and 10 μM UC2288, 48 hours",No significant difference
same,"area of osteogenic stained cells, comparison of 2.5, 5 and 10 μM",MSCs [2]; 5 μM UC2288 at 24 hr,most osteogenic stained cells
same,staining for calcium deposits in osteoblasts from MSCs versus DMEM control,"MSCs [2]; 10 μM UC2288 for 24 hr, 21 days osteogenic culture",Greater staining
same,bone formation/healing versus saline control mice (microCT),fractured tibiae,more bone formation/healing
same,Sp7 expression compared to the osteogenic positive control,Sp7 (Osterix); 5 μM,increased osteogenic potential
same,Sp7 expression compared to the osteogenic positive control,Sp7 (Osterix); 10 μM,increased osteogenic potential
same,Sp7 expression compared to the control,"Sp7 (Osterix); all concentrations (2.5, 5, 10 μM)",increased osteogenic gene expression
same,effect on osteogenic markers compared to 2.5 and 10 μM,RunX2; 5 μM,most significant effect
same,RunX2 expression compared to controls,"RunX2; 2.5, 5, 10 μM",increased osteogenic potential
same,RunX2 expression compared to the osteogenic control,"RunX2; 2.5, 5, 10 μM",less than the osteogenic control
same,expression of p21 in HuMSCs,CDKN1A (p21); 2.5 μM,reduced p21 expression
same,expression of p21 in HuMSCs,CDKN1A (p21); 5 μM,reduced p21 expression
same,expression of p21 in HuMSCs,CDKN1A (p21); 10 μM,increased expression
same,callus Surface Area (microCT),[3],0.1147 mm^2
same,callus Surface Area Pixels (microCT),[3],7611878.877 Pixels
same,callus Volume (microCT),[3],0.4206 mm^3
same,callus Volume Pixels (microCT),[3],27919486 Pixels
